Test results published in PubChem BioAssay AID2060333 (Molecular Pharmacology Branch, DTP, NCI, 2025).

Tested on: 845751-090-R-J2-PDC tumor spheroid viability
Assay: Anticancer human tumor 845751-090-R-J2-PDC patient-derived head and neck squamous carcinoma cell line growth inhibition [IpAb]
Conditions: spheroids with HUVEC and MSC; for IC50: curve of first compound; for viability, T/C: stronger effect = lower value
Method in brief: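 Spheroids of 60% malignant cells, 25% HUVEC and 15% MSC were exposed to targeted agents combined with ipatasertib or abemaciclib. Doses started at or near clinical Cmax (10 microM when unknown) and fell in half-log steps.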
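Also: spheroids exposed to compounds for 7 days before readout.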
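For viability, T/C in this document: CTG3D luminescence normalised so that 100% = DMSO vehicle control.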

SMILES: COc1c(OCCCN2CCOCC2)ccc2c3n(c(=NC(=O)c4cnc(N)nc4)nc12)CCN3 + CCN1CCN(Cc2ccc(Nc3ncc(F)c(-c4cc(F)c5nc(C)n(C(C)C)c5c4)n3)nc2)CC1
- IC50 (second compound 0.01 µM): 7.18 nM
- IC50 (second compound 0.0316 µM): 4.99 nM
- IC50 (second compound 0.1 µM): 5.23 nM
- IC50 (second compound 0.316 µM): 6.38 nM
- IC50 (second compound 1 µM): 10.6 nM
- viability, T/C (second compound 0.01 µM, first compound 0.00316 µM): 63.3%
- viability, T/C (second compound 0.01 µM, first compound 0.01 µM): 43.5%
- viability, T/C (second compound 0.01 µM, first compound 0.0316 µM): 30.8%
- viability, T/C (second compound 0.01 µM, first compound 0.1 µM): 13.7%
- viability, T/C (second compound 0.01 µM, first compound 0.316 µM): 10.6%
- viability, T/C (second compound 0.01 µM, first compound 1 µM): 4.54%
- viability, T/C (second compound 0.0316 µM, first compound 0.00316 µM): 54%
- viability, T/C (second compound 0.0316 µM, first compound 0.01 µM): 43.6%
- viability, T/C (second compound 0.0316 µM, first compound 0.0316 µM): 28.3%
- viability, T/C (second compound 0.0316 µM, first compound 0.1 µM): 11.9%
- viability, T/C (second compound 0.0316 µM, first compound 0.316 µM): 8.73%
- viability, T/C (second compound 0.0316 µM, first compound 1 µM): 3.86%
- viability, T/C (second compound 0.1 µM, first compound 0.00316 µM): 56.5%
- viability, T/C (second compound 0.1 µM, first compound 0.01 µM): 41.6%
- viability, T/C (second compound 0.1 µM, first compound 0.0316 µM): 26.3%
- viability, T/C (second compound 0.1 µM, first compound 0.1 µM): 11.7%
- viability, T/C (second compound 0.1 µM, first compound 0.316 µM): 12.8%
- viability, T/C (second compound 0.1 µM, first compound 1 µM): 3.55%
- viability, T/C (second compound 0.316 µM, first compound 0.00316 µM): 68.2%
- viability, T/C (second compound 0.316 µM, first compound 0.01 µM): 35.9%
- viability, T/C (second compound 0.316 µM, first compound 0.0316 µM): 24.6%
- viability, T/C (second compound 0.316 µM, first compound 0.1 µM): 15.8%
- viability, T/C (second compound 0.316 µM, first compound 0.316 µM): 11.7%
- viability, T/C (second compound 0.316 µM, first compound 1 µM): 4.79%
- viability, T/C (second compound 1 µM, first compound 0.00316 µM): 60%
- viability, T/C (second compound 1 µM, first compound 0.01 µM): 54.1%
- viability, T/C (second compound 1 µM, first compound 0.0316 µM): 31.2%
- viability, T/C (second compound 1 µM, first compound 0.1 µM): 21.5%
- viability, T/C (second compound 1 µM, first compound 0.316 µM): 12.6%
- viability, T/C (second compound 1 µM, first compound 1 µM): 5.48%
